± gives the expanded uncertainty stated by the source.
Key:
[1] = DTA
[2] = Molar enthalpy of transition or fusion; details: DSC

SMILES	Normal melting temperature ([1]; Crystal) [°C]	Molar enthalpy of transition or fusion ([2]; Crystal) [kcal/mol]	Normal melting temperature ([1]; Crystal 1) [°C]	Triple point temperature ([1]; Crystal 2) [K]	Molar enthalpy of transition or fusion ([2]; Crystal 1) [kcal/mol]	Molar enthalpy of transition or fusion ([2]; Crystal 2) [kcal/mol]
NCCCCCCN [1,6-hexanediamine]	38.5 ± 0.53	9.41 ± 0.263				
NCCCCCCCCN [1,8-diaminooctane]	51.73 ± 0.53	12.1 ± 0.287				
c1ccc(-c2ccccc2)cc1 [biphenyl]	69.22 ± 0.53	4.71 ± 0.215				

Next, values leading:

Normal melting temperature ([1]; Crystal) [°C]	Molar enthalpy of transition or fusion ([2]; Crystal) [kcal/mol]	Normal melting temperature ([1]; Crystal 1) [°C]	Triple point temperature ([1]; Crystal 2) [K]	Molar enthalpy of transition or fusion ([2]; Crystal 1) [kcal/mol]	Molar enthalpy of transition or fusion ([2]; Crystal 2) [kcal/mol]	SMILES
		34.62 ± 0.53	301.14 ± 0.53	8.47 ± 0.263	2.05 ± 0.201	NCCCCCCCCCN [1,9-diaminononane]
68.69 ± 0.53	16 ± 0.359					NCCCCCCCCCCCCN [1,12-dodecanediamine]

Reference: the NIST ThermoML archive (doi:10.1016/j.jct.2005.12.004)
